Experimental findings from patent US20050171342A1, “Conjugates of biologically active compounds, methods for their preparation and use, formulation and pharmaceutical applications thereof” (priority 2002, published 2005) are described below.

Like-named read-outs stand apart in the source and are kept apart here. A value given as a limit tells only on which side of the number the result lay.

Data set [1] concerns white blood cells (immune cells: neutrophils, monocytes, lymphocytes) versus erythrocytes. The experiment in a line: Immune cell partition / concentrative uptake into white blood cells (immune selectivity ratio). The data set is classed as in vitro ADME, mammalian.
Procedure: Freshly drawn heparinised blood or buffy coat preparations are used for the determination of immune cell partition ratios. Buffy coat preparations are preferred. These may be obtained from donor blood by simple centrifugation of whole blood (4795 g for 10 minutes). Following centrifugation, plasma is collected from the surface, after which immune cells are expressed from the donor bags along with the erythrocytes lying immediately below the leukocyte layer. This ensures high yields and a sufficient population of erythrocytes for partition. 5 ml of the resulting cell suspension are dispensed into T25 culture flasks. Substrates are added to a final concentration between 1 and 10 μM and the suspensions incubated at 37° C., in a 5% CO2 atmosphere. For analysis of uptake kinetics, samples are withdrawn at 0, 2, 5, 10, 30, 60, 90, 180, or 240 min after substrate addition. For screening purposes, samples are taken at 0 and 120 minutes.
Cell fractions were prepared using density gradient centrifugation. […]
Uptake of fluorescent compounds is monitored using fluorescence microscopy. Excitation and emission wavelengths depend of the fluorescence label in use. […]
For the next data set, the system named is E. coli (DH5α). The data set can be described thus: Testing of antibiotic activity (TC50, antibiotic dilution assay, turbidity). In kind it is cell-based. Conditions: concentration that inhibits 50% of the growth. Here is the method: The TC50 or MIC procedure for antibiotic sensitivity testing involves an antibiotic dilution assay, which can be performed in microtitre plates. A series of twofold dilutions of each antibiotic are made in the wells, and then all wells are inoculated with a standard amount of the same test organism. After incubation, growth in the presence of the various antibiotics is observed by measuring turbidity.
Bacteria: B. pumilus and E. coli (DH5α)
Bacterial cultures are initiated from the plates for 2 to 3 weeks. After this time period bacteria are streaked out on new plates from the backups strored at −80° C. Due to the lack of resistance of the bacteria, new cultures are not to be initiated from an old plate or any liquid cultures derived from old plates. • Growth medium (GM)(per liter): 10 g Bacto-tryptone, 5 g Bacto-yeast extract, 6 g HEPES (25 mM), 5.4 g NaCl, pH 7.3 • Compound stocks 10 or 100 mM in DMSO stored at −20° C. Procedure • 1. Grow B. pumilus from an LB agar plate in a flask (max. 10% volume) up to about 50 ml in growth medium (GM) • 2. Dilute overnight suspension 1:10 in GM • 3. Determine OD600 of diluted bacterial suspension • 4. Dilute bacterial suspension in GM to an OD600 of 0.03-0.04. (6 ml/plate) • 5. Add 200 μl GM to the outer wells (Row A, Row H, Column 1, Column 12) • 6. Add 100 μl GM to each well starting from C2, row 3. • 7. Controls: Wells B2-B4 growth control. Wells B6-B8 blank. Row C growth inhibition control. • 7.1. To wells B2-B4 add: […], 4 μl DMSO, and 100 μl bacterial suspension adjusted to an OD600 of 0.03-0.04. • 7.2. To wells B6-B8 add: 196 μl GM and 4 μl DMSO • 7.3. Dilute a 10 mM COMPOUND 43 (positive control) stock to 800 μM (120 μl/plate) in GM. Add 100 μl of 800 μM COMPOUND 43 solution to well C2. • 8. Samples • 8.1. Dilute the 10 or 100 mM stock solutions to 800 μM (250 μl/plate) in GM. • 8.2. Add 100 μl of 800 μM sample in duplicates to wells D2/E2 resp. F2/G2. • 8.3. 2-fold serial dilution of all samples and Azithromycin • 8.3.1. […]
11. Determine OD600 on plate reader.

Another data set has as its system lymphocytes. The experiment in a line: Proliferation assay (BrdU incorporation, phytohemagglutanin-stimulated lymphocytes). The data set is classed as cell-based, mammalian. Conditions: for IC50: Lymphocyte; for Ratio (2 h:72 h): ratio of IC50 at 2 h to IC50 at 72 h, lower = better uptake and drug release. An excerpt: Assay to determine the in vitro rate of, for example, lymphocyte proliferation. Lymphocytes are purified out of ant coagulated (CPDA, citrate or heparin) mammalian blood using the Lymphoprep™ system (supplier). Purified cells are counted using a hemocytometer following Trypan Blue staining, and a cell concentration of 1×10^6 cells/ml established in RPMi 1640 medium with 10% FCS and antibiotics as required (all from Biochrome). Following the addition of a cell proliferation stimulant, for example phytohemagglutanin (Sigma) at, for example an end concentration of 5 μg/ml, the cells are incubated with different concentrations of the to be investigated compound in 100 μl end volume in a 96-well microtiter plate in an incubator (37° C., 5% CO2, 95% humidity) for 72 h. Cell proliferation is quantified following BrdU incorporation for 16 h by ELISA and subsequent colorimetric development (Cell Proliferation ELISA BrdU (colorimetric) kit from Roche Diagnostics). The IC50 (μM) values are then calculated, and used to compare compound efficacy. To determine the influence of the T-L-C modification on in vitro cellular drug uptake and pharmacology, the above assay is additionally modified and an additional “wash” step included. In addition to running the assay for 72 h with the compounds to be tested, the assay is also run for just 2 h, then compound is washed away in three serial washing steps using 200 μl of medium at each step, and the cells subsequently incubated for a further 70 h. […] The lower the number, the better the uptake and drug release from the T-L-C in the cells (see results in Table 4 for examples), and improvement over mycophenolic acid.

The subject of a further data set is HeLa or JURKAT. The experiment in a line: Cytotoxicity assay (Alamar Blue) with guanosine rescue, cell-based IMPDH assay. On the procedure: HeLa cells (DSMZ, ACC 57) and Jurkat cells (DSMZ, ACC 282) in exponential growth phase are exposed for 3 days to test compounds. The number of surviving cells is then determined by the Alamar Blue assay (Serotec Inc.). This assay incorporates a fluorometric growth indicator based on detection of metabolic activity. Specifically, the system incorporates an oxidation-reduction indicator that fluoresces in response to chemical reduction of the growth medium resulting from cell growth. As cells grow in culture, innate metabolic activity results in a chemical reduction of the immediate surrounding environment. Continued growth maintains a reduced environment while inhibition of growth maintains an oxidized environment. […] Fluorescence is monitored at 560 nm (Exc.) and 590 nm Em.
HeLa cells (1×10^3) or JURKAT cells (1×10^3) are plated in 100 μl MEM medium (with Earle's salt; Biochrom KG) containing 10% FBS, 2 mM L-glutamine, and non-essential animo acids in 96-well plates and incubated at 37° C. and 5% CO2 atmosphere. […] The fluorescence is then measured as described above and the LD50 is determined based on a sigmoidal dose response regression. […] Any toxicity still detected can then be ascribed either to other biological effects of the of T-L-C conjugate of mycophenolic acid, or is due to the very high intracellular concentration of mycophenolic acid, following concentrative uptake into the cell.
A general note: Resazurin is reduced to fluorescent resorufin, in cell work by metabolically active cells.

Where [2] appears, read: read-out: IC50 (μM) at 2 h, 2 h incubation, compound washed away, further 70 h incubation.
Where [3] appears, read: 72 h incubation with compound, read-out: IC50 (μM) at 72 h.

For `CC[C@H]1OC(=O)[C@H](C)[C@@H](OC2C[C@@](C)(OC)[C@@H](O)[C@H](C)O2)[C@H](C)[C@@H](OC2O[C@H](C)C[C@H](N(C)C)[C@H]2O)[C@](C)(O)C[C@@H](C)/C(=N/OCc2cc(=O)oc3cc(OC)c(OC)cc23)[C@H](C)[C@@H](O)[C@]1(C)O` (stereo partly shown) [Compound 3], the intracellular distribution entry in data set [1] (polymorphonuclear cells, fluorescent image (FIG. 3)) is “even distribution with some concentration near the nucleus”.

As to `COc1cc(C)c(/C(=C\C(C)=O)CC(N)C(=O)O)cc1OC` (stereo not shown) [Compound 4], in data set [1] (uptake into immune cells, images during course of uptake), the “uptake (speed)” value was “rapid”.

Regarding `CC[C@H]1OC(=O)[C@H](C)C(=O)[C@H](C)[C@@H](O[C@@H]2O[C@H](C)CC(N(C)C)[C@H]2O)[C@](C)(O)C[C@@H](C)CN(C)[C@H](C)[C@@H](O)[C@]1(C)O` (stereo partly shown) [Compound 40], the “TC50 in E. coli” value in the data set on E. coli (DH5α) was above 50000 nM.

As for `CC[C@H]1OC(=O)[C@H](C)[C@@H](O[C@H]2C[C@@](C)(OC)[C@@H](O)[C@H](C)O2)[C@H](C)[C@@H](O[C@@H]2O[C@H](C)C[C@H](N(C)C)[C@H]2O)[C@](C)(O)C[C@@H](C)CN(C)[C@H](C)[C@@H](O)[C@]1(C)O` [Compound 43, 9a-aza-9a-methyl-9-deoxo-9a-homoerythromycin A, reference compound], the “TC50 in E. coli” value with E. coli (DH5α) was 2300 nM.

Turning to `CC[C@H]1OC(=O)[C@H](C)[C@@H](O[C@H]2C[C@@](C)(OC)[C@@H](O)[C@H](C)O2)[C@H](C)[C@@H](O[C@@H]2O[C@H](C)CC(N(C)C(=O)CN(C)CCO)[C@H]2O)[C@](C)(O)C[C@@H](C)CN(C)[C@H](C)[C@@H](O)[C@]1(C)O` (stereo partly shown) [Compound 45], the “TC50 in E. coli” value in the data set with E. coli (DH5α) was above 50000 nM.

For the molecule `CCOC(=O)CC/C(C)=C/Cc1c(OC)c(C)c2c(c1OC(=O)CCC(=O)O[C@@H]1C(N(C)C)C[C@@H](C)O[C@H]1O[C@@H]1[C@@H](C)[C@H](O[C@H]3C[C@@](C)(OC)[C@@H](O)[C@H](C)O3)[C@@H](C)C(=O)O[C@H](CC)[C@@](C)(O)[C@H](O)[C@@H](C)N(C)C[C@H](C)C[C@@]1(C)O)C(=O)OC2` (stereo partly shown) [Compound 69], the results for the IC50 in the data set with lymphocytes (setting [2]) and with lymphocytes (setting [3]) were 2.66 µM and 1.4 µM, respectively. In the data set on lymphocytes, the “Ratio (2 h:72 h)” value is reported as 1.9.

`CC[C@H]1OC(=O)[C@H](C)[C@@H](O)[C@H](C)[C@@H](O[C@@H]2O[C@H](C)C[C@@H](N(C)CCOC(=O)CC/C(C)=C/Cc3c(O)c4c(c(C)c3OC)COC4=O)[C@@H]2N(C)C)[C@](C)(O)C[C@@H](C)CN(C)[C@H](C)[C@@H](O)[C@]1(C)O` [Compound 74]: the IC50 (in general, the concentration that gives 50% inhibition) was determined as 3.2 µM in the data set with lymphocytes (setting [2]) and 2.2 µM in the data set with lymphocytes (setting [3]). In addition, the “Ratio (2 h:72 h)” value in the data set with lymphocytes amounted to 1.45.

For `CC[C@H]1OC(=O)[C@H](C)C(=O)[C@H](C)[C@@H](O[C@@H]2O[C@H](C)C[C@H](N(C)C)[C@H]2OC(=O)CC/C(C)=C/Cc2c(O)c3c(c(C)c2OC)COC3=O)[C@](C)(O)C[C@@H](C)CN(C)[C@H](C)[C@@H](O)[C@]1(C)O` [Compound 79], the IC50 turned out to be 3.16 µM with lymphocytes (setting [2]) and 1.2 µM with lymphocytes (setting [3]). The “Ratio (2 h:72 h)” value in the data set with lymphocytes is 2.63.

Consider `CC[C@H]1OC(=O)[C@H](C)[C@@H](O[C@H]2C[C@@](C)(OC)[C@@H](O)[C@H](C)O2)[C@H](C)[C@@H](O[C@@H]2O[C@H](C)C[C@@H](OC(=O)CC/C(C)=C/Cc3c(O)c4c(c(C)c3OC)COC4=O)[C@@H]2N2CCOCC2)[C@](C)(O)C[C@@H](C)CN(C)[C@H](C)[C@@H](O)[C@]1(C)O` [Compound 80], for which the figures for the IC50 with lymphocytes (setting [2]) and with lymphocytes (setting [3]) were 1.41 µM and 0.4 µM, respectively. The “Ratio (2 h:72 h)” value in the data set on lymphocytes was 3.53.

For the molecule `COc1c(C)c2c(c(O)c1C/C=C(\C)CCC(=O)OC(COCCCCOCC(CN1CCOCC1)OC(=O)CC/C(C)=C/Cc1c(O)c3c(c(C)c1OC)COC3=O)CN1CCOCC1)C(=O)OC2` (stereo not shown) [Compound 81], the IC50 in the data set with lymphocytes (setting [2]) was 1.78 µM; with lymphocytes (setting [3]), 1.12 µM. Besides, the “Ratio (2 h:72 h)” value in the data set on lymphocytes is reported as 1.6.

`COc1c(C)c2c(c(O)c1C/C=C(\C)CCC(=O)OCCN1CCOCC1)C(=O)OC2` [Mycophenolate mofetil, reference compound]: the IC50 in the data set on lymphocytes (setting [2]) was found to be 1.5 µM; in the data set with lymphocytes (setting [3]), 0.33 µM. Further, in the data set on lymphocytes, the “Ratio (2 h:72 h)” value is listed as 4.5.

As to `COc1c(C)c2c(c(O)c1C/C=C(\C)CCC(=O)O)C(=O)OC2` [Mycophenolic acid, reference compound], the 50% inhibitory concentration (IC50) with lymphocytes (setting [2]) was 2.5 µM; in the data set on lymphocytes (setting [3]), 0.54 µM; with HeLa or JURKAT (normal culture conditions, HeLa or JURKAT) it was below 2000 nM. For the same molecule, in the data set with lymphocytes, the “Ratio (2 h:72 h)” value amounted to 4.63. Moreover, the “effect in the presence of guanosine” value with HeLa or JURKAT (50 μM guanosine) is recorded as “completely removed”.
